{"source": "patent US20240050524A1", "about": "“DELIVERY OF ABETA VARIANTS FOR AGGREGATION INHIBITION” (Baylor College of Medicine, priority 2020, published 2024)", "test_system": "γ-secretase", "assay": "Dependence of Aβ release from transfected N2a cells on γ-secretase activity (IP/immunoblot of conditioned media)", "assay_type": "cell-based, murine", "details": "'KK' minimal construct; 0.1 or 1 nM", "description": "Collection of Aβ peptides from N2a conditioned media. N2a cells were grown in 6 well plates using Dulbecco's modified Eagle's medium (DMEM) (#12-604F, VWR) supplemented with […] penicillin/streptomycin and 10% fetal bovine serum until approximately 90% confluent. […] Twenty-four hours later, cells were washed with 1×Dulbecco's PBS, and a serum-reduced medium consisting of DMEM and 0.2% fetal bovine serum was added before the cells were returned to 5% CO2 at 37° C. Conditioned media was harvested 24 hr later and centrifuged at 10,000 rpm for 5 min at 4° C. (2 ml/well×3 wells per IP reaction). To test the dependence of Aβ release on γ-secretase activity, cells were transfected as above, with the subsequent media replacement including 0.1 or 1 nM of LY411575 (#SML0506, Sigma). Supernatants were collected and supplemented with protease inhibitors (#5892970001, Sigma) and 0.01% NaN3 (#S2002, Sigma) to prevent proteolytic degradation.\nAβ IP from conditioned media for immunoblot. Protein G Dynabeads (50 μl, #10003D, Fisher) were loaded with mouse anti-Aβ antibody 6E10 (1 ug, #SIG-39320, BioLegend, San Diego, CA) for 1 hr at RT. […] Antibody binding was detected using […] secondary antibody conjugated with IRDye, diluted 1:20,000 in block (#26-32210, LI-COR, Lincoln, NE). Blots were imaged with an Odyssey Fc Imager and analyzed with Image Studio software (LI-COR).", "note": "“Also recorded” adds a separate entry of the source.", "data": [{"smiles": "C[C@H](NC(=O)[C@@H](O)c1cc(F)cc(F)c1)C(=O)N[C@@H]1C(=O)N(C)c2ccccc2-c2ccccc21", "note": "[LY411575]", "values": [{"measurement": "block of Aβ secretion into the media", "result": "blocked release of variant Aβ into the media in a concentration-dependent manner; also recorded: blocked in a dose-dependent manner"}]}]}
